| Structure (SMILES) | melting point [°C] |
| --- | --- |
| CN(c1nnc(C(F)(F)F)s1)C1CCN(Cc2cccc(F)c2)CC1 | 80.5 |
| O=C(O)Cc1ccc(OCCNC(=O)C2Cc3ccccc3N2S(=O)(=O)c2ccc(-c3cc(C(F)(F)F)ccc3Cl)cc2)cc1F (centres undefined) | 105 |
| CC(C)(C)C(=O)COc1nn(CC#N)c(-c2ccc(S(C)(=O)=O)cc2)c1-c1ccc(F)cc1 | 156 to 159 |
| O=c1ncc(Cl)cn1C(SCc1ccccc1)c1ccccc1 (centres undefined) | 118 |
| Cc1cc(NC(=O)OC(C)(C)C)c(N)cc1C#Cc1ccccc1 | 172 to 173 |
| CCCCn1cc(C(=O)C(=O)O)c2cc(-c3ccc(OC)cc3)ccc21 | 172 to 173 |
| CC(C)C1CCC2(C(=O)O)CCC3(C)C(CCC4C5(C)CCC(O)C(C)(C)C5CCC43C)C12 (centres undefined) | 287 to 289 |
| CN(C)CCN(C)C(=O)c1ccc2cc(-c3csc(N(C)S(=O)(=O)c4ccccc4)n3)c(=O)[nH]c2c1 | 144 to 148 |
| CCC(C)c1ccc2c(c1)C(=O)N(c1ccc3c(ccn3C)c1)C2 (centres undefined) | 146 to 147 |
| COc1ccc2cc(-c3oc4ccccc4c3C(O)CC3CCCC3)ccc2c1 (centres undefined) | 176 to 177 |
| OC(Cn1ccnc1)(Cn1cncn1)c1ccc(Cl)cc1Cl (centres undefined) | 169 to 170 |
| O=C(CCS(=O)C(c1ccccc1)c1ccccc1)NO (centres undefined) | 159 to 160 |
| Cc1ccc(C(O)C(=O)c2ccc(Br)cc2)cc1 (centres undefined) | 80 to 82 |
| CCCCc1oc2ccccc2c1C(=O)NCc1ccc2c(-c3ccc(OC)cc3)c(OC(Cc3ccccc3)C(=O)OC)ccc2c1 (centres undefined) | 103 to 105 |
| NC1=NS(=O)N=C1NCCCCN(Cc1ccc(Cl)cc1)c1ccccn1 (centres undefined) | 175 to 177 |
| O=C(Nc1ccc(Cl)c(Cl)c1)OC1CN2CCC1CC2 (centres undefined) | 181 to 184 |
| NC(=O)c1ccccc1C(=O)NCCCN1CCC(c2noc3cc(F)ccc23)CC1 | 129 to 130 |
| O=C(O)CCC(=O)CCC(=O)Nc1ccc(Cc2ccc(NC(=O)CCC(=O)CCC(=O)O)cc2)cc1 | 158 to 160 |
| CN1CN(C)C(=N[N+](=O)[O-])N(Cc2ccc(Cl)nc2)C1 | 116 to 117 |
| C=C(C)SC1C(NC(=O)COc2ccccc2)C(=O)N1C=O (centres undefined) | 156 to 158 |
| CCN(CC)CCCCNc1ncc2c(n1)N(CC)C(=O)N(c1cc(OC)cc(OC)c1)C2 | 83 to 85 |
| C=C1CN(S(=O)(=O)c2ccc(C)cc2)CCCN(Cc2ccccc2)CCCN(S(=O)(=O)c2ccc(C)cc2)C1 | 156 to 158 |

| Structure (SMILES) | melting point [°C] |
| --- | --- |
| C=CCN1C2C=C(c3cc4ccccc4s3)CC1CC2 (centres undefined) | 60.6 to 62.6 |
| NC(=O)c1ccc(-c2ccc(Oc3ccc(F)cc3)cc2)[nH]1 | 218 to 220 |
| Cc1cc(C)n2nc(Sc3ccccc3Cl)nc2n1 | 143 |
| CN1CC=C(c2c[nH]c3ccc(C[C@H]4COC(=O)N4)cc23)CC1 | 225 to 227 |
| COc1cccc2c1CCC(CN1C(=O)c3ccccc3C1=O)C2 (centres undefined) | 143 to 144 |
| O=C(C=C1CCN(CCc2ccc(F)cc2)CC1)NCc1ccc(F)c(F)c1 | 117 to 120 |
| CCOC(=O)CCSc1nnsc1-c1ccc(Cl)cc1 | 71.5 to 73.5 |
| CCOC(=O)COc1cc(C(=O)OC)on1 | 66 to 67 |
| CNC(=O)c1cccc(C2=NC(C)(C)Cc3cc(OC)c4c(c32)CC(C)(C)O4)c1 | 206 to 207 |
| Oc1ccc2nc(-c3cccc4c(O)cccc34)oc2c1 | 240 to 242 |
| O=C(O)Cc1ccc2c(c1)CCC(C(F)(F)F)N2 (centres undefined) | 107 to 108 |
| CCN1CC([N+](=O)[O-])=C(N(C)C)N(Cc2cccnc2)C1 | 97 to 98 |
| CSc1ccccc1C1CCN(CCCCNC(=O)c2ccc(-c3ccc(C(F)(F)F)cc3)cc2)CC1 | 191 to 192 |
| CN1NCc2c(Cl)ncnc21 | 97 to 99 |
| NC(=O)c1cn(Cc2ccccc2F)cn1 | 204 to 205 |
| Cc1nc2ncc(C(=O)NCc3ccc(Cl)cc3)c(O)c2cc1I | 276 to 277 |
| NS(=O)(=O)c1ccc(-c2cccc(-c3nc(-c4ccc(Cl)c(Cl)c4)cc(C(F)(F)F)n3)c2)s1 | 203 |
| c1ccc(COc2ccc(Nc3ccccn3)cc2)cc1 | 110 to 112 |
| Cc1ccc(C(=O)O)c(OC(=O)C=Cc2ccccc2)c1 | 156 to 157 |
| O=C(O)c1ccc(C(c2ccccc2)c2ccc(Cl)cc2)cn1 (centres undefined) | 200 to 203 |
| NC(=O)c1nc(-c2ccc(Oc3ccc(F)cc3)c(F)c2)cs1 | 183 |
| COCCOc1ncccc1S(N)(=O)=O | 102 to 103 |

More lines, now with the values ahead:

| melting point [°C] | Structure (SMILES) |
| --- | --- |
| 172 | NS(=O)(=O)c1ccc(-n2nc(C(F)(F)F)cc2-c2ccc(-c3ccco3)c(Cl)c2)cc1F |
| 107 to 108 | COc1ccc2c(c1)Oc1c(cccc1OCc1ccccc1)C2 |
| 89 to 94 | CC(=O)c1ccc2c(c1)C(Cc1ccccc1)=CC(=CCl)CO2 |
| 154 | O=c1ncc(C(F)(F)F)c[nH]1 |
| 155 | CCC(=O)Nc1cccc(NC(=O)C=C(C)OC)c1 |
| 342 | Cn1cc(C(=O)O)c(=O)c2cc(F)c(Cl)cc21 |
| 183 to 186 | Cn1cc(-c2ccccc2S(N)(=O)=O)cn1 |
| 159 to 160 | Cc1ncccc1Oc1ccc(NC(=O)N2CCc3c(n(C)c4ccccc34)CC2)cn1 |
| 202 to 204 | CC(C)c1ccc(-c2nnc(-c3cccc(C(=O)O)c3)o2)cc1 |
| 133 to 134 | CN(C)c1ccc(C(=O)N2CCN(CCc3ccc(Cl)cc3)CC2)cc1 |
| 104 to 105 | C#CCn1c(C(F)(F)F)nc2cc(F)c(-n3c(=O)cc(C(F)(F)F)n(C)c3=O)cc21 |
| 80 to 83 | CCCCOc1ccc(CC(=O)N[C@@H](C(=O)OCc2ccccc2)[C@@H](C)O)cc1 |
| 240 to 242 | Cc1c(F)c(N2CCNCC2)c(F)c2c1c(=O)c(C(=O)O)cn2-c1ccc(F)cc1F |
| 220 to 222 | O=C1N(Cc2ncc(F)cc2F)c2ccccc2C12COc1cc3c(cc12)OCCO3 (centres undefined) |
| 247 to 248 | Cc1c(S(=O)(=O)c2ccc(=O)[nH]n2)oc2ccc(Cl)cc12 |
| 129 | CO[C@@H]1[C@@H](OC)[C@H](C)O[C@@H](OC(=S)Nc2ccc(-c3nccn3-c3ccc(OC(F)(F)F)cc3)cc2)[C@@H]1OC |
| 132 | O=C(On1nnc2ccc(Cl)cc21)c1ccccc1 |
| 106 | Cc1cc(O)ccc1-c1cc2ccccc2[nH]1 |
| 203 to 204 | Cc1cc(C)c2c(c1)c(-c1ccccc1Cl)c(NC(=O)Nc1c(C)cccc1C(C)C)c(=O)n2C |
| 204 to 205 | CCN(CC)c1ccc2nc3c4ccc(Br)cc4c(=Nc4ccccn4)cc-3oc2c1 |
| 138 to 140 | CN(Cc1cccc2c1C(=O)N(C1CCC(=O)NC1=O)C2=O)C(=O)OC(C)(C)C (centres undefined) |
| 177 to 178 | CC(=O)C(Cc1cc(C(C)(C)C)c(O)c(C(C)(C)C)c1)(Cc1cc(C(C)(C)C)c(O)c(C(C)(C)C)c1)C(=O)OC1CC(C)(C)NC(C)(C)C1 |
| 136 to 138 | COC1=C(Br)C(=O)O/C1=C\c1ccccc1C(F)(F)F |
| 232 | O=C(O)CNC(=O)c1ncc2c(Cl)cccc2c1O |
| 149 to 151 | c1ccc(-c2cc(NC3=NCCN3)cc3[nH]cnc23)cc1 |
| 109 to 111 | ICCCCCOc1ccc(C2=C(c3ccccc3)CCCc3cc(OC4CCCCO4)ccc32)cc1 (centres undefined) |
| 107 to 109 | CCON=C(C(C)=NOCc1ccccc1C(=COC)C(=O)OC)c1ccc(OC(C)c2ccc(Cl)cc2)cc1 (centres undefined) |
| 137 | CCCCCS(=O)(=O)NC(=O)CC(C)c1ccc(OCCOC)cc1Oc1ncc(C(F)(F)F)cc1Cl (centres undefined) |

| melting point [°C] | Structure (SMILES) |
| --- | --- |
| 65 to 68 | CCC1Nc2c(C)cccc2-n2cccc21 (centres undefined) |
| 203 to 204 | COc1ccc(-c2nc(S(=O)CC3OCCO3)[nH]c2-c2ccc(OC)cc2)cc1 (centres undefined) |
| 129 to 130 | CCCN(CCC)CC(=O)Nc1cccc2c1C(=O)c1c(NC(=O)CN(CCC)CCC)cccc1C2=O |
| 56 to 57 | COC(=O)c1c(C)nc(CC(C)C)c(CN)c1-c1ccc(C)cc1 |
| 153 to 154 | CCOC(=O)COc1ccc(Br)cc1C1C(C(=O)OCC)=C(C)NC(C)=C1C(=O)OCC |
| 145 to 146 | O=C1c2c(F)c(F)c(F)c(F)c2C(=O)N1c1ccc(F)cc1F |
| 32 to 44 | CC(C)C1(C)CC(=O)CC(C)(C)N1OC(C)(C)C#N (centres undefined) |
| 121 to 123 | O=C(OCCc1noc(-c2ccc(CN3CCCCCC3)s2)n1)c1ccccc1 |
| 247 | COc1ccc(-c2n[nH]c3c2Cc2ccccc2-3)cc1 |
| 110 to 113 | Cc1nc(N)ccc1-c1ccccc1 |
| 137 to 139 | CC(=O)SCCC(=O)N1N=C(c2ccccc2)CC1C(=O)O (centres undefined) |
| 101 to 103 | COc1ccc(C=CS(=O)(=O)N2C(=O)CCC2OC(C)C)cc1 (centres undefined) |
| 115 to 116 | C=C1C(=O)CCC(C)(C)C1=O |
| 128 to 130 | CCC(OCc1ccc(-c2ccc(Cl)cc2)cc1)(C(=O)O)c1ccccc1 (centres undefined) |
| 29 to 32 | CCC(=O)NC(C)OC (centres undefined) |
| > 220 | Clc1ccc2c(n1)[nH]c1ccc(Br)cc12 |
| 84 to 87 | COc1ccc2nc(CCCCCCC(=O)O)ccc2c1 |
| 138 to 150 | CC(C)CC(=O)NC(=O)c1nnn(Cc2ccccc2)c1N |
| 138 to 140 | CCOC(=O)NCC(C)C(NC(=O)OCC)NC(=O)OCC (centres undefined) |
| 160 | CC(=O)OC1CC2(C)C(CCC2(O)C(C)=O)C2CCC3=CC(=O)CCC3(C)C12 (centres undefined) |
| 83 to 84 | CCOC(=O)C(=O)Nc1c(C)c(C)c2c(c1C)C(c1ccc(C(C)C)cc1)CO2 (centres undefined) |
| 144 to 146 | CN1C(C(=O)O)C(=O)c2ccccc2S1(=O)=O (centres undefined) |
| 96 to 97 | CCCOc1ccc2c(c1)C(=O)c1cccc(OC)c1-2 |
| 124 to 126 | COC(=O)/C=C(\C)C(C)Sc1nc(N)cc(Cl)n1 (centres undefined) |
| 153 | O=C1NC(CCN2CCC(C(=O)c3ccc(F)cc3)CC2)Nc2ccccc21 (centres undefined) |
| 155 to 158 | O=c1c2cc(O)c(O)cc2c2cc(O)c(O)cc2n1CCCc1ccccc1 |
| 160 to 162 | O=C(Oc1ccccc1)c1ccc2c(c1)S(=O)(=O)NCN2C1CC1 |

From a melting point compilation (Tetko et al.; mined from patent text by program, amines drawn as free bases though some values may be those of a salt)
